In experiment [1] the test system is HIF mediated transcription. Kind of experiment: Inhibition of activation of HIF mediated transcription under hypoxic conditions (CellSensor HRE-bla HCT-116). The following applies: Homo sapiens; HRE-bla HCT-116 cells, deferoxamine-induced hypoxia, 24 h. It counts as cell-based. On the procedure: Inhibition of an activated HIF signaling response under chemically-induced hypoxic conditions due to compound treatment was determined using the CellSensor® HRE-bla HCT-116 stably transfected reporter cell line from Invitrogen according to the manufacturer's instructions. HIF is a transcriptional factor composed of the constitutively expressed HIF1β subunit and one of three HIFα subunits (HIF1α, HIF2α, HIF3α). This assay is responsive towards HIFa activity in general. In one example, HIF-1, when stabilized by hypoxic conditions, upregulates several genes to promote cell survival in low-oxygen conditions. These include glycolysis enzymes, which allow ATP synthesis in an oxygen-independent manner, and vascular endothelial growth factor (VEGF), which promotes angiogenesis. HIF-1 acts by binding to HIF-responsive elements (HREs) in promoters that generally contain the sequence NCGTG.
Cells were maintained as described previously and seeded into 384-well, clear-bottom plates (Corning 3712) at 15000 cells/well in 32 μl assay medium (Opti-MEM [Invitrogen], 0.5% FBS, 100 U/ml penicillin, 100 μg/ml streptomycin, 0.1 mM non-essential amino acids [NEAA], 1 mM sodium pyruvate, 5 mM HEPES [pH 7.3]). Following a 2 h incubation period, compounds (4 μl) were subsequently added to the cells at 10× concentrations in 5% DMSO and incubated under normal conditions for 30 min. To induce hypoxic conditions, 4 μl of a 2 mM deferoxamine (DFO) solution was added to the cells followed by 24 h incubation under standard assay conditions (as described). Control wells included wells containing only medium (no cells) and wells treated with 0.5% DMSO instead of compound.
Prior to the readout, the Substrate Loading Solution was prepared as described in the manufacturer's protocol and 10 μl added to each well. Following a further 2 h incubation period at room temperature and in the dark, fluorescence was measured at two wavelengths (blue channel: ex. 409 nm, em. 460 nm; green channel: ex. 409 nm, em. 530 nm) on a PerkinElmer Envision HTS. For the analysis, the average signal of the cell-free wells at 460 nm and 530 nm was first subtracted from the blue and green channel data, respectively. The blue/green emission ratios were then calculated for each well, dividing the background-corrected blue emission values by the background-corrected green emission values. IC50 values were determined from these ratios using GraphPad Prism (Prism 5, GraphPad software, Inc.).

Experiment [2] has as its system MCF7 cells. Briefly: Cell proliferation assay (ATPlite), MCF-7. The class given is cell-based, human. The following applies: Homo sapiens, inhibition of cell proliferation, 72 h. The gist of the method: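 Cells seeded (MCF-7 2000/well, HG-1 1000/well in RPMI with 2 ng/ml IL-6), then after 24 h exposed to compound at 0.5% DMSO final for 72 h. Proliferation read as ATP luminescence (ATPlite); EC50 calculated from the dose-response.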
A general note: Cellular ATP, detected with luciferase, serves as a proxy for viable cell number.

Experiment [3] concerns estrogen receptor (ER)-mediated transcriptional activity. Kind of experiment: Inhibition of estrogen receptor (ER) signaling, ERE-tk-luc transfection assay in MCF-7 cells. It counts as cell-based. As to conditions: Homo sapiens, MCF7, ERE-tk-luc luciferase readout, 24 h. Here is the method:
To determine the effect of the compounds on estrogen receptor (ER)-mediated transcriptional activity a transfection assay using the MCF-7 cell line was performed. A luciferase-coupled ERE-tk-luc construct was obtained from Dr. G. Reid (EMBL).
In brief, MCF-7 cells were maintained as described previously and seeded on the first experimental day at a concentration of 3500 cells/well in 100 μl medium and incubated under standard conditions for 24 h. Following this initial incubation period, transfection was carried out using 5 ng of the ERE-tk-luc construct (per well) and Exgene 500 transfection reagent (Fermentas) in a final buffered solution containing 150 mM NaCl and 20 mM Tris pH 8.4. The plates were then maintained for 3-4 hours until cell culture conditions in the incubator before compounds were added at 11× concentrations to yield the final desired compound concentrations in 0.5% DMSO (in the same manner as for the proliferation assays described previously).
After an additional 24 h incubation period the degree of inhibition of ER-signaling was determined via a luciferase readout. Cells were treated with Britelite™ plus solution according to the manufacturer's instructions (PerkinElmer, britelite plus, Ultra-High Sensitivity Luminescence Reporter Gene Assay System) and luciferase levels measured on an Envision HTS multilabel plate reader (PerkinElmer) in luminescence mode according to established protocols. Raw data were imported into an ActivityBase database (IDBS, ID Business Solutions) and IC50 values calculated using the IDBS program ActivityBase XE.

As a reminder, the EC50 is the concentration at which the effect is half-maximal. High values mean a need for much substance, low ones an effect from little substance. In the case of `Cc1ccc(S(=O)(=O)Nc2cc(-c3csc(C#N)c3)ccc2C)cc1F` [Example 95, N-(5-(5-cyanothiophen-3-yl)-2-methylphenyl)-3-fluoro-4-methylbenzenesulfonamide], the EC50 in experiment [1] and in experiment [2] was below 500 nM in each case.
Take `COc1ccc(S(=O)(=O)Nc2cc(-c3ccc(C#N)c(OC)c3)ccc2C)cc1F` [Example 103, N-(4′-cyano-3′-methoxy-4-methylbiphenyl-3-yl)-3-fluoro-4-methoxybenzenesulfonamide]: the EC50 in experiment [1] and in experiment [2] was below 500 nM each time.
On to `Cc1ccc(S(=O)(=O)Nc2cc(-c3ccc(C#N)c(F)c3)ccc2C)cc1` [Example 71, N-(4′-Cyano-3′-fluoro-4-methyl-biphenyl-3-yl)-4-methyl-benzenesulfonamide], for which the EC50 in experiment [1] and in experiment [2] was below 500 nM throughout.
In general, IC50 refers to the concentration that inhibits the measured activity by half. High values mean weaker potency, low ones greater potency. Regarding `Cc1ccc(S(=O)(=O)Nc2cc(-c3ccoc3)ccc2C)cc1` [Example 5, N-(5-Furan-3-yl-2-methyl-phenyl)-4-methyl-benzenesulfonamide], the 50% effective concentration (EC50) in experiment [2] is below 500 nM. In experiment [3], this compound yielded a half-inhibitory concentration (IC50) below 500 nM.
In turn, `Cc1ccc(S(=O)(=O)Nc2cc(-c3ccco3)ccc2C)cc1` [Example 4, N-(5-Furan-2-yl-2-methyl-phenyl)-4-methyl-benzenesulfonamide] registered a 50% effective concentration (EC50) in experiment [2] below 500 nM. In addition, the half-maximal inhibitory concentration (IC50) in experiment [3] was below 500 nM.
For the compound `COc1ccc(S(=O)(=O)Nc2cc(-c3ccc(C#N)cn3)ccc2C)cc1` [Example 49, N-[5-(5-Cyano-pyridin-2-yl)-2-methyl-phenyl]-4-methoxy-benzenesulfonamide], in experiment [2], the EC50 is below 500 nM. The compound also had a half-inhibitory concentration (IC50) in experiment [3] below 500 nM.
`Cc1cc(S(=O)(=O)Nc2cc(-c3ccc(C#N)s3)ccc2C)ccc1F` [Example 112, N-(5-(5-cyanothiophen-2-yl)-2-methylphenyl)-4-fluoro-3-methylbenzenesulfonamide]: the concentration for a half-maximal effect (EC50) in experiment [1] and in experiment [2] was below 500 nM in each case.
For `Cc1ccc(S(=O)(=O)Nc2cc(-c3csc(C#N)c3)ccc2C)cc1` [Example 68, N-[5-(5-Cyano-thiophen-3-yl)-2-methyl-phenyl]-4-methyl-benzenesulfonamide], the EC50 in experiment [1] and in experiment [2] was below 500 nM throughout.
On to `Cc1ccc(-c2ccc(C#N)s2)cc1NS(=O)(=O)c1ccc(C(F)(F)F)cc1` [Example 78, N-[5-(5-Cyano-thiophen-2-yl)-2-methyl-phenyl]-4-trifluoromethyl-benzenesulfonamide], for which the EC50 in experiment [2] fell in the range of 500 to 1000 nM.
The same measure, in the same setting: with `Cc1ccc(S(=O)(=O)Nc2cc(-c3ccc(C#N)cc3)ccc2C)cc1F` [Example 88, N-(4′-Cyano-4-methyl-biphenyl-3-yl)-3-fluoro-4-methyl-benzenesulfonamide] the figure was below 500 nM; with `COc1ccc(S(=O)(=O)Nc2cc(-c3ccsc3)ccc2C)cc1` [Example 14, 4-Methoxy-N-(2-methyl-5-thiophen-3-yl-phenyl)-benzenesulfonamide], below 500 nM; with `COc1ccc(S(=O)(=O)Nc2cc(-c3ccccc3C#N)ccc2C)cc1` [Example 58, N-(2′-Cyano-4-methyl-biphenyl-3-yl)-4-methoxy-benzenesulfonamide], 500 to 1000 nM.
For the compound `COc1cc(-c2ccc(C)c(NS(=O)(=O)c3ccc([N+](=O)[O-])cc3)c2)ccc1C#N` [Example 101, N-(4′-cyano-3′-methoxy-4-methylbiphenyl-3-yl)-4-nitrobenzenesulfonamide], the EC50 in experiment [2] was in the range of 1000 to 10000 nM.
In the case of `Cc1ccc(-c2ccc(C#N)s2)cc1NS(=O)(=O)c1ccc(Cl)cc1` [Example 77, 4-Chloro-N-[5-(5-cyano-thiophen-2-yl)-2-methyl-phenyl]-benzenesulfonamide], the EC50 in experiment [2] is below 500 nM.
Same read-out and setting: with `COc1cccnc1-c1ccc(C)c(NS(=O)(=O)c2ccc(C)cc2)c1` [Example 26, N-[5-(3-Methoxy-pyridin-2-yl)-2-methyl-phenyl]-4-methyl-benzenesulfonamide] the figure was 1000 to 10000 nM; with `COc1cc(C)c(-c2ccc(C)c(NS(=O)(=O)c3ccc(C)cc3)c2)cn1` [Example 36, N-[5-(6-Methoxy-4-methyl-pyridin-3-yl)-2-methyl-phenyl]-4-methyl-benzenesulfonamide], 1000 to 10000 nM; with `COc1cc(-c2ccc(C)c(NS(=O)(=O)c3ccc(N)cc3)c2)ccc1C#N` [Example 102, 4-amino-N-(4′-cyano-3′-methoxy-4-methylbiphenyl-3-yl)benzenesulfonamide], below 500 nM.
Turning to `COc1ccc(-c2ccc(C)c(NS(=O)(=O)c3ccc(C)cc3)c2)nc1` [Example 44, N-[5-(5-Methoxy-pyridin-2-yl)-2-methyl-phenyl]-4-methyl-benzenesulfonamide], the 50% effective concentration (EC50) in experiment [2] was below 500 nM.
Same read-out and setting: with `Cc1ccc(S(=O)(=O)Nc2cc(-c3cccc(C)c3)ccc2C)cc1` [Example 7, N-(4,3′-Dimethyl-biphenyl-3-yl)-4-methyl-benzenesulfonamide] the figure was 500 to 1000 nM.
In turn, `Cc1ccc(S(=O)(=O)Nc2cc(-c3cccc(N(C)C)n3)ccc2C)cc1` [Example 66, N-[5-(6-Dimethylamino-pyridin-2-yl)-2-methyl-phenyl]-4-methyl-benzenesulfonamide] showed an EC50 in experiment [2] of 500 to 1000 nM.
`Cc1ccc(S(=O)(=O)Nc2cc(-c3ccc(C#N)cn3)ccc2C)cc1` [Example 43, N-[5-(5-Cyano-pyridin-2-yl)-2-methyl-phenyl]-4-methyl-benzenesulfonamide]: the EC50 in experiment [1] and in experiment [2] was below 500 nM throughout. In addition, the IC50 in experiment [3] is below 500 nM.
`Cc1ccc(-c2ccc(C#N)cc2)cc1NS(=O)(=O)c1cccc(F)c1` [Example 104, N-(4′-cyano-4-methylbiphenyl-3-yl)-3-fluorobenzenesulfonamide] gave an EC50 in experiment [2] of 1000 to 10000 nM.
With `Cc1ccc(-c2ccc(C#N)s2)cc1NS(=O)(=O)c1ccc2c(c1)OCO2` [Example 114, N-(5-(5-cyanothiophen-2-yl)-2-methylphenyl)benzo[d][1,3]dioxole-5-sulfonamide], the EC50 in experiment [1] and in experiment [2] was below 500 nM throughout.

(Values after patent US20120095024A1, “TOLUIDINE SULFONAMIDES AND THEIR USE” (Elara Pharmaceuticals GmbH, priority 2008, published 2012).)
